Measured values as given in patent US20100035756A1, “TRIAZOLOPHYRIDINE DERIVATIVES AS HERBICIDES” (SYNGENTA LIMITED, priority 2006, published 2010).

Columns and labels:
Format in all cases: in vivo
Stellaria media = assay: Microscreen (pre-emergence), Example B3; conditions: preemergent application, 250 g/ha, evaluated 8 days later, 100%=total damage
Nasturtium officinale = assay: Microscreen (pre-emergence), Example B3; conditions: preemergent application, 250 g/ha, evaluated 8 days later, 100%=total damage
Solanum nigrum = assay: Microscreen (pre-emergence), Example B3; conditions: preemergent application, 250 g/ha, evaluated 8 days later, 100%=total damage
Setaria italica = assay: Microscreen (pre-emergence), Example B3; conditions: preemergent application, 250 g/ha, evaluated 8 days later, 100%=total damage
Digitaria sanguinalis = assay: Microscreen (pre-emergence), Example B3; conditions: preemergent application, 250 g/ha, evaluated 8 days later, 100%=total damage
Agrostis tenuis = assay: Microscreen (pre-emergence), Example B3; conditions: preemergent application, 250 g/ha, evaluated 8 days later, 100%=total damage
[1] = test system: Monocotyledonous and dicotyledonous test plants; assay: Herbicidal action prior to emergence of the plants (pre-emergence action), Example B1; conditions: preemergence application, 250 g/ha, evaluated after 4 weeks, 100%=total damage, 0%=no damage
Procedure: (§1) Monocotyledonous and dicotyledonous test plants are sown in seed trays in standard soil. Immediately after sowing, the test compounds are applied by spraying in the form of an aqueous suspension (prepared from a wettable powder (Example F3, b) according to WO 97/34485) or in the form of an emulsion (prepared from an emulsifiable concentrate (Example F1, c) according to WO 97/34485) in a concentration of 250 g/ha. The test plants are then grown in a greenhouse under optimum conditions. After a 4-week test period, the test is evaluated (100%=total damage to plant; 0%=no damage to plant; NC not evaluated).

Amaranthus retroflexus = assay: Microscreen (pre-emergence), Example B3; conditions: preemergent application, 250 g/ha, evaluated 8 days later, 100%=total damage
[2] = test system: Monocotyledonous and dicotyledonous test plants; assay: Herbicidal action after emergence of the plants (post-emergence herbicidal action), Example B2; conditions: postemergent application, 125 g/ha, 2- to 3-leaf stage, evaluated after 2-3 weeks, 100%=total damage
Procedure: as §1, with “When the test plants are at the 2- to 3-leaf stage,” for “Immediately after sowing,”, “125” for “250”, “grown on” for “grown”, “2- to 3-week” for “4-week”, “plant).” for “plant; NC not evaluated).”

Row | Structure (SMILES) | herbicidal damage, ABUTH [1] | herbicidal damage, AMARE [1] | herbicidal damage, BRAPL [1] | herbicidal damage, DIGSA [1] | herbicidal damage, ECHCG [1] | herbicidal damage, SETFA [1] | herbicidal damage, STEME [1] | herbicidal damage, VERPE [1] | herbicidal damage, ABUTH [2] | herbicidal damage, AMARE [2] | herbicidal damage, CHEAL [2] | herbicidal damage, DIGSA [2] | herbicidal damage, SETFA [2] | herbicidal damage, SINAR [2] | herbicidal damage, VERPE [2] | herbicidal damage, XANST [2] | other results
1 | Cc1nnc2c(C(=O)C3=C(O)C4(CCC3=O)CC4)ccc(C(F)(F)F)n12 [41.2] | 80% | 100% | 80% | 100% | 100% | 80% | 70% | 90% | – | – | – | – | – | – | – | – | herbicidal damage, Stellaria (Stellaria media): 90%; herbicidal damage, Nasturtium (Nasturtium officinale): 100%; herbicidal damage, Solanum (Solanum nigrum): 100%; herbicidal damage, Setaria (Setaria italica): 80%; herbicidal damage, Digitaria (Digitaria sanguinalis): 100%; herbicidal damage, Agrostis (Agrostis tenuis): 100%; herbicidal damage, Amaranthus (Amaranthus retroflexus): 100%
2 | Cc1nnc2c(C(=O)C3=C(O)C4CCC(C4)C3=O)ccc(C(F)F)n12 (stereo not drawn) [Compound 1.54] | 20% | 10% | 40% | 0% | 0% | 0% | 0% | 20% | 70% | 80% | 70% | 60% | 50% | 60% | 60% | 70% | –
3 | CC(C)c1nnc2c(C(=O)C3=C(O)C4CCC(C4)C3=O)ccc(C(F)(F)F)n12 (stereo not drawn) [Compound 1.7] | 100% | 100% | 80% | 100% | 80% | 80% | 100% | 100% | 90% | 90% | 80% | 80% | 70% | 80% | 90% | 80% | –
4 | Cc1nc2c(C(=O)C3=C(O)C4CCC(C4)C3=O)ccc(C(F)(F)F)n2n1 (stereo not drawn) [2.4] | 70% | 60% | 10% | 30% | – | 20% | 60% | 10% | 80% | 80% | 80% | 70% | 70% | 80% | 30% | 80% | –
5 | O=C(C1=C(O)C2CCC(C2)C1=O)c1ccc(C(F)(F)F)n2nc(Cl)nc12 (stereo not drawn) [2.2] | 50% | 70% | 50% | 50% | 70% | 10% | 0% | 60% | 40% | 80% | 80% | 90% | 80% | 70% | 70% | 60% | –
6 | O=C(C1=C(O)C2CCC(C2)C1=O)c1ccc(C(F)(F)F)n2c(Cl)nnc12 (stereo not drawn) [Compound 1.2] | 100% | 100% | 100% | 100% | 100% | 90% | – | 70% | 90% | 80% | 80% | 90% | 90% | 70% | 70% | 80% | –
7 | O=C(C1=C(O)C2CCC(C2)C1=O)c1ccc(C(F)(F)F)n2cnnc12 (stereo not drawn) [Compound 1.1] | 100% | – | 30% | 70% | 0% | 30% | 100% | 60% | 80% | 80% | 80% | 60% | 80% | 90% | 50% | 80% | –
8 | CCOc1nnc2c(C(=O)C3=C(O)C4CCC(C4)C3=O)ccc(C(F)(F)F)n12 (stereo not drawn) [Compound 1.211] | 30% | 100% | 100% | 70% | 70% | 30% | 80% | 90% | 70% | 100% | 80% | 70% | 80% | 80% | 80% | 80% | –
9 | CCSc1nnc2c(C(=O)C3=C(O)C4CCC(C4)C3=O)ccc(C(F)(F)F)n12 (stereo not drawn) [Compound 1.212] | 70% | 100% | 60% | 70% | 50% | 80% | 70% | 0% | 80% | 80% | 80% | 80% | 80% | 80% | 80% | 80% | –
10 | CC(C)c1nnc2c(C(=O)C3=C(O)CCCC3=O)ccc(C(F)(F)F)n12 [Compound 3.6] | 90% | 70% | 60% | 90% | 90% | 50% | 20% | 20% | 80% | 70% | 90% | 70% | 70% | 90% | 100% | 90% | –
11 | Cc1nnc2c(C(=O)C3=C(O)CC(C)CC3=O)ccc(C(F)(F)F)n12 (stereo not drawn) [Compound 4.3] | 70% | 100% | 100% | 100% | 100% | 40% | 80% | 100% | – | – | – | – | – | – | – | – | herbicidal damage, Stellaria (Stellaria media): 80%; herbicidal damage, Nasturtium (Nasturtium officinale): 100%; herbicidal damage, Solanum (Solanum nigrum): 100%; herbicidal damage, Setaria (Setaria italica): 60%; herbicidal damage, Digitaria (Digitaria sanguinalis): 100%; herbicidal damage, Agrostis (Agrostis tenuis): 100%; herbicidal damage, Amaranthus (Amaranthus retroflexus): 100%
